Test results published in patent publication US20240092761A1, “QUINAZOLINE COMPOUNDS AND METHODS OF USE” (IAMBIC THERAPEUTICS, INC., priority 2022, published 2024).

Assays:
CDK1/Cyclin B1 = CDK1/Cyclin B1 (Homo sapiens (Human), UniProt P06493); assay: CDK1/Cyclin B1 ADP-Glo Kinase Assay; type: biochemical; conditions: 80 uM ATP
How it was run: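 Luminescent ADP-Glo detection of ADP produced over 90 min at room temperature. Enzyme complex 4.917 nM, pre-exposed 30 min to inhibitor; ATP 80 µM (near Km 78.6 µM), substrate 0.75 µM, HEPES pH 7.5, 2% DMSO. Fractional velocity fitted to 4-parameter IC50 equation.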

[1] = target: CDK2/Cyclin E1 full length (Homo sapiens (Human), UniProt P24941); assay: CDK2/Cyclin E1 Full Length ADP-Glo Kinase Assay; type: biochemical; conditions: 20 uM ATP, read-out: CDK2/ CyclinE1 IC50
How it was run: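 ADP-Glo luminescence read-out of ADP formed by 0.328 nM wild-type full-length CDK2/Cyclin E1, 90 min at room temperature with 0.75 uM substrate and 20 uM ATP (Km 64.78 uM), after 30 min enzyme–inhibitor pre-incubation; 50 mM HEPES pH 7.5, 2% DMSO. Four-parameter IC50 fit.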

CDK4/Cyclin D1 [2] = target: T1, CDK4/Cyclin D1 (Homo sapiens (Human), UniProt P11802); assay: CDK4/Cyclin D1 Mobility Shift Assay (MSA); type: biochemical; conditions: 0.2 mM ATP, read-out: CDK4/ CyclinD1 MSA IC50
T1 sequence (P11802 whole entry): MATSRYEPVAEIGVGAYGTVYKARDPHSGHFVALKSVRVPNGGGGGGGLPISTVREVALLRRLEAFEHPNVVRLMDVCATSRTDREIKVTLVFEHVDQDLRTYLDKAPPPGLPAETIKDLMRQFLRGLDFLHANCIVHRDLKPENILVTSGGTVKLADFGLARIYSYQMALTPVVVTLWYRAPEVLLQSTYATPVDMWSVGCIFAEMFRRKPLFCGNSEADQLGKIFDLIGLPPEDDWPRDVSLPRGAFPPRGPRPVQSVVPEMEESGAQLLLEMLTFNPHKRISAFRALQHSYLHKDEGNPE
T1 sequence (P24385 whole entry partner): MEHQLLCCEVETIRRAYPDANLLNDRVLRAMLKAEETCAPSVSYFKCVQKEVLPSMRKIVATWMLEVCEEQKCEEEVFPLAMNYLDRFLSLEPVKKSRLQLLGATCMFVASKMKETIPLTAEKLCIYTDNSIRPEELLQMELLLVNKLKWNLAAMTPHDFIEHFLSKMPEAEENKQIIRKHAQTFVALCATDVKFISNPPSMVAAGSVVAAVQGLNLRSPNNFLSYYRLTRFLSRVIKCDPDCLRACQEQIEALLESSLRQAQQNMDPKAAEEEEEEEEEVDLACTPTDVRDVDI
Text: CDK4/Cyclin D1 Mobility Shift Assay (MSA)
The purpose CDK4/Cyclin D1 assay is to evaluate the inhibition (% inhibition and IC50 values) in the presence of small molecule inhibitors by using a fluorescence based microfluidic mobility shift assay. CDK4/Cyclin D1 catalyzes the production of ADP from ATP that accompanies the phosphoryl transfer to the substrate peptide 5-FAM-Dyrktide (5-FAM-RRRFRPASPLRGPPK) (Perkin Elmer Peptide 34). The mobility shift assay (MSA) electrophoretically separates the fluorescently labelled peptides (substrate and phosphorylated product) following the kinase reaction. Both substrate and product are measured, and the ratio of these values is used to generate % conversion of substrate to product by the LabChip EZ Reader. Typical reaction solutions contained 2% DMSO (+/−inhibitor), 10 mM MgCl2, 1 mM EGTA, 0.05% BSA, 2 mM DTT, 0.2 mM ATP, 0.01% Brig-35, 1.5 uM 5-FAM-Dyrktide, 2.5 nM CDK4/Cyclin D1 in 50 mM HEPES buffer at pH 7.5. The reaction was initiated with the addition of substrate solution, following a 30-minute pre-incubation of enzyme and inhibitor at 22° C. in the reaction mix. The reaction was stopped after 180 minutes by the addition of 75 uL of 500 mM EDTA and measured on a Perkin Elmer EZ reader instrument. IC50 determinations were made from a plot of the fractional velocity as a function of inhibitor concentration fit to the 4 parameters IC50 equation.

CDK6/Cyclin D3 = CDK6/Cyclin D3 (Homo sapiens (Human), UniProt Q00534); assay: CDK6/Cyclin D3 ADP-Glo Kinase Assay; type: biochemical; conditions: 100 uM ATP, read-out: CDK6/ CyclinD3 IC50
Chain of CDK6/Cyclin D3 (Q00534 whole entry): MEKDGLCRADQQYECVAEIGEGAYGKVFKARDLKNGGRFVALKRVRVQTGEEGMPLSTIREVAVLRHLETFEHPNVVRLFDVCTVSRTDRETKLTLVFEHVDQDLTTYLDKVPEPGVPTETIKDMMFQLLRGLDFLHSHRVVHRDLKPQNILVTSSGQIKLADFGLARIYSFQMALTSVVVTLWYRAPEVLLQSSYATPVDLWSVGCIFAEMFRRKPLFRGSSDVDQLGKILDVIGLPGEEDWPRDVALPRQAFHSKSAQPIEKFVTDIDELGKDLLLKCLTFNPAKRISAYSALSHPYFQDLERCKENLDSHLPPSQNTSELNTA
Chain of CDK6/Cyclin D3 (P30281 whole entry partner): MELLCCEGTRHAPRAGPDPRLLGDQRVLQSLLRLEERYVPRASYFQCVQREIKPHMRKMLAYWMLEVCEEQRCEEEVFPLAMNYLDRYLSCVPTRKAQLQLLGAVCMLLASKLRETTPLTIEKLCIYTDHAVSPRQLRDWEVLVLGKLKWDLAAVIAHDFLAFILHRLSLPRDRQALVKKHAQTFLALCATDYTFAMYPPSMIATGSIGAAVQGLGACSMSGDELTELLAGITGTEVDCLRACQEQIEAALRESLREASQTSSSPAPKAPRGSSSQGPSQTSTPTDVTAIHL
How it was run: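 Luminescent ADP-Glo read-out of ADP produced, used to fit IC50 (4-parameter equation on fractional velocity against inhibitor concentration). Kinase reaction: enzyme and inhibitor together 30 min, then ATP-containing substrate added for 90 min, all at room temperature.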

CDK4/Cyclin D1 [3] = target: T1, CDK4/Cyclin D1; assay: CDK4/Cyclin D1 CHEF Assay (AQT0258 peptide); type: biochemical; conditions: 200 uM ATP, read-out: CDK4/ CyclinD1 AQT IC50
How it was run: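 CDK4/Cyclin D1 (2.5 nM) phosphorylating 10 uM Sox-labelled peptide AQT0258 with 200 uM ATP (Km 195.2 uM), 10 mM MgCl2, 2% DMSO, 54 mM HEPES pH 7.5. Enzyme and inhibitor pre-incubated 30 min, reaction 3 hrs at 22° C.; CHEF fluorescence (ex 360/em 485 nm), IC50 from fractional velocity, 4-parameter fit.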

MCF-7 cells = assay: Cell Growth Inhibition, MCF-7 (CellTiterGlo, 6 days); type: cell-based; conditions: Homo sapiens, MCF7, 144 h; MCF-7, 6-day treatment, CellTiterGlo 2.0
How it was run: (§1)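 Compounds were run in half-log series, usually 10–10,000 nM, with 500 cells/well of OVCAR-3 or MCF-7 in RPMI plus 10% FBS. After a 6-day culture at 37 °C, viability was read by CellTiterGlo luminescence. Inhibition relative to control was fitted (four-parameter, variable slope) for IC50.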

OVCAR-3 cells = assay: Cell Growth Inhibition, OVCAR-3 (CellTiterGlo, 6 days); type: cell-based; conditions: Homo sapiens, 144 h; OVCAR-3, 6-day treatment, CellTiterGlo 2.0
How it was run: as §1

Chain of CDK1/Cyclin B1 (P06493 whole entry): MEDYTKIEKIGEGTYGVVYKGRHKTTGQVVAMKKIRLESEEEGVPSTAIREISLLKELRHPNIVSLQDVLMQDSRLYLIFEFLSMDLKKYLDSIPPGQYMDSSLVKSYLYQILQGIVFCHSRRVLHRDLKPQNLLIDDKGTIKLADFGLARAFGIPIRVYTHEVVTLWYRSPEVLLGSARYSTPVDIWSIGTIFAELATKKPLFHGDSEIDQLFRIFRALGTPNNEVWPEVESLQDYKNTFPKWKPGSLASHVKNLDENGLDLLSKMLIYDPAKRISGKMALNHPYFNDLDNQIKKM
Chain of CDK1/Cyclin B1 (P14635 whole entry partner): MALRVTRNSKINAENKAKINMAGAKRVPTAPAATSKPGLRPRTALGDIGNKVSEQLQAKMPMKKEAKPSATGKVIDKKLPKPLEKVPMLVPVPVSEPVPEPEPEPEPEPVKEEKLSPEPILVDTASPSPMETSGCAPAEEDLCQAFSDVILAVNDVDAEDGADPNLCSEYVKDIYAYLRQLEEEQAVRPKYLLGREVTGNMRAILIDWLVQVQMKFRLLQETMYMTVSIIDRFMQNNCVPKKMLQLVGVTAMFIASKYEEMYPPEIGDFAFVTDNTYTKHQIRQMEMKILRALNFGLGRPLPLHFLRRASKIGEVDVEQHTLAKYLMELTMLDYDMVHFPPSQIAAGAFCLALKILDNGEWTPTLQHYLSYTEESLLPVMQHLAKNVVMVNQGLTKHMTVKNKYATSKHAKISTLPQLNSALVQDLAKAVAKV

## CS(=O)(=O)N1CCC(Nc2ncc3cccc(N4CCCC4)c3n2)CC1 [Example 2, N-(1-(methylsulfonyl)piperidin-4-yl)-8-(pyrrolidin-1-yl)quinazolin-2-amine]
CDK1/Cyclin B1
  IC50: 500 to 2000 nM
[1]
  IC50: < 200 nM
CDK4/Cyclin D1 [2]
  IC50: < 200 nM
CDK6/Cyclin D3
  IC50: < 200 nM

## CC(=O)N1CC2(CCN(c3cccc4cnc(NC5CCN(S(C)(=O)=O)CC5)nc34)C2)C1 [Example 5, 1-(6-(2-((1-(methylsulfonyl)piperidin-4-yl)amino)quinazolin-8-yl)-2,6-diazaspiro[3.4]octan-2-yl)ethan-1-one]
CDK1/Cyclin B1
  IC50: > 2000 nM
[1]
  IC50: 200 to 500 nM
CDK4/Cyclin D1 [2]
  IC50: 500 to 2000 nM
CDK6/Cyclin D3
  IC50: 500 to 2000 nM

## CS(=O)(=O)N1CCC(Nc2ncc3cccc(N4CCCC5(CCOC5)C4)c3n2)CC1 (stereo not shown) [Example 7, N-(1-(methylsulfonyl)piperidin-4-yl)-8-(2-oxa-7-azaspiro[4.5]decan-7-yl)quinazolin-2-amine]
CDK1/Cyclin B1
  IC50: > 2000 nM
[1]
  IC50: < 200 nM
CDK4/Cyclin D1 [2]
  IC50: 200 to 500 nM
CDK6/Cyclin D3
  IC50: 500 to 2000 nM

## CS(=O)(=O)N1CCC(Nc2ncc3cccc(N4CCCC5(COC5)C4)c3n2)CC1 [Example 8, N-(1-(methylsulfonyl)piperidin-4-yl)-8-(2-oxa-6-azaspiro[3.5]nonan-6-yl)quinazolin-2-amine]
CDK1/Cyclin B1
  IC50: > 2000 nM
[1]
  IC50: 200 to 500 nM
CDK4/Cyclin D1 [2]
  IC50: 500 to 2000 nM
CDK6/Cyclin D3
  IC50: 500 to 2000 nM

## O=S(=O)(C1CC1)N1CCC(Nc2ncc3cc(C(F)F)cc(N4CC5(CNCC5F)C4)c3n2)CC1 (stereo not shown) [Example 104, N-(1-(cyclopropylsulfonyl)piperidin-4-yl)-6-(difluoromethyl)-8-(8-fluoro-2,6-diazaspiro[3.4]octan-2-yl)quinazolin-2-amine]
CDK1/Cyclin B1
  IC50: < 200 nM
[1]
  IC50: < 200 nM
CDK4/Cyclin D1 [3]
  IC50: < 200 nM
CDK6/Cyclin D3
  IC50: < 200 nM
MCF-7 cells
  IC50: 200 to 500 nM
OVCAR-3 cells
  IC50: 200 to 500 nM

## O=S(=O)(N1CCC(Nc2ncc3cccc(N4CC5(CNCCC5(F)F)C4)c3n2)CC1)C1(C(F)F)CC1 [Example 105, 8-(9,9-difluoro-2,6-diazaspiro[3.5]nonan-2-yl)-N-(1-((1-(difluoromethyl)cyclopropyl)sulfonyl)piperidin-4-yl)quinazolin-2-amine]
CDK1/Cyclin B1
  IC50: 200 to 500 nM
[1]
  IC50: < 200 nM
CDK4/Cyclin D1 [3]
  IC50: < 200 nM
CDK6/Cyclin D3
  IC50: 200 to 500 nM
MCF-7 cells
  IC50: > 2000 nM
OVCAR-3 cells
  IC50: > 2000 nM

## CS(=O)(=O)N1CCC(Nc2ncc3cc(C(F)F)cc(C4CC5(CCN(CC(F)(F)CO)C5)C4)c3n2)CC1 (stereo not shown) [Example 106, 3-(2-(6-(difluoromethyl)-2-((1-(methylsulfonyl)piperidin-4-yl)amino)quinazolin-8-yl)-6-azaspiro[3.4]octan-6-yl)-2,2-difluoropropan-1-ol]
CDK1/Cyclin B1
  IC50: < 200 nM
[1]
  IC50: < 200 nM
CDK4/Cyclin D1 [3]
  IC50: < 200 nM
CDK6/Cyclin D3
  IC50: < 200 nM
MCF-7 cells
  IC50: 500 to 2000 nM
OVCAR-3 cells
  IC50: 500 to 2000 nM

## CS(=O)(=O)N1CCC(Nc2ncc3cccc(N4CC(F)(F)C5(CNC5)C4)c3n2)CC1 [Example 109, 8-(8,8-difluoro-2,6-diazaspiro[3.4]octan-6-yl)-N-(1-(methylsulfonyl)piperidin-4-yl)quinazolin-2-amine]
CDK1/Cyclin B1
  IC50: < 200 nM
[1]
  IC50: < 200 nM
CDK4/Cyclin D1 [3]
  IC50: < 200 nM
CDK6/Cyclin D3
  IC50: < 200 nM
MCF-7 cells
  IC50: 500 to 2000 nM
OVCAR-3 cells
  IC50: 500 to 2000 nM

## CS(=O)(=O)N1CCC(Nc2ncc3cccc(C4CC5(CNCCO5)C4)c3n2)CC1 (stereo not shown) [Example 110, N-(1-(methylsulfonyl)piperidin-4-yl)-8-(5-oxa-8-azaspiro[3.5]nonan-2-yl)quinazolin-2-amine]
CDK1/Cyclin B1
  IC50: < 200 nM
[1]
  IC50: < 200 nM
CDK4/Cyclin D1 [3]
  IC50: < 200 nM
CDK6/Cyclin D3
  IC50: < 200 nM
MCF-7 cells
  IC50: 500 to 2000 nM
OVCAR-3 cells
  IC50: 500 to 2000 nM

## CS(=O)(=O)N1CCC(Nc2ncc3cccc(N4CC5(CNCC5(F)F)C4)c3n2)CC1 [Example 111, 8-(8,8-difluoro-2,6-diazaspiro[3.4]octan-2-yl)-N-(1-(methylsulfonyl)piperidin-4-yl)quinazolin-2-amine]
CDK1/Cyclin B1
  IC50: 500 to 2000 nM
[1]
  IC50: < 200 nM
CDK4/Cyclin D1 [3]
  IC50: < 200 nM
CDK6/Cyclin D3
  IC50: < 200 nM
MCF-7 cells
  IC50: 500 to 2000 nM
OVCAR-3 cells
  IC50: 500 to 2000 nM

## CS(=O)(=O)N1CCC(Nc2ncc3cc(C(F)F)cc(C4CC5(C4)CN(CC(F)(F)CO)C5)c3n2)CC1 [Example 112, 3-(6-(6-(difluoromethyl)-2-((1-(methylsulfonyl)piperidin-4-yl)amino)quinazolin-8-yl)-2-azaspiro[3.3]heptan-2-yl)-2,2-difluoropropan-1-ol]
CDK1/Cyclin B1
  IC50: < 200 nM
[1]
  IC50: < 200 nM
CDK4/Cyclin D1 [3]
  IC50: < 200 nM
CDK6/Cyclin D3
  IC50: < 200 nM
MCF-7 cells
  IC50: 200 to 500 nM
OVCAR-3 cells
  IC50: < 200 nM

## CS(=O)(=O)N1CCC(Nc2ncc3cc(C(F)F)cc(C4CC(O)(C(F)F)C4)c3n2)CC1 (stereo not shown) [Example 113, 1-(difluoromethyl)-3-(6-(difluoromethyl)-2-((1-(methylsulfonyl)piperidin-4-yl)amino)quinazolin-8-yl)cyclobutan-1-ol]
CDK1/Cyclin B1
  IC50: < 200 nM
[1]
  IC50: < 200 nM
CDK4/Cyclin D1 [3]
  IC50: < 200 nM
CDK6/Cyclin D3
  IC50: < 200 nM
MCF-7 cells
  IC50: 200 to 500 nM
OVCAR-3 cells
  IC50: 200 to 500 nM

## CS(=O)(=O)N1CCC(Nc2ncc3cc(C(F)(F)F)cc(C4CC(O)(C5CC5)C4)c3n2)CC1 (stereo not shown) [Example 114, 1-cyclopropyl-3-(2-((1-(methylsulfonyl)piperidin-4-yl)amino)-6-(trifluoromethyl)quinazolin-8-yl)cyclobutan-1-ol]
CDK1/Cyclin B1
  IC50: < 200 nM
[1]
  IC50: < 200 nM
CDK4/Cyclin D1 [3]
  IC50: < 200 nM
CDK6/Cyclin D3
  IC50: < 200 nM
MCF-7 cells
  IC50: > 2000 nM
OVCAR-3 cells
  IC50: > 2000 nM

## CS(=O)(=O)N1CCC(Nc2ncc3cc(C(F)F)cc(N4CC5(CNCC5(F)F)C4)c3n2)CC1 [Example 115, 8-(8,8-difluoro-2,6-diazaspiro[3.4]octan-2-yl)-6-(difluoromethyl)-N-(1-(methylsulfonyl)piperidin-4-yl)quinazolin-2-amine]
CDK1/Cyclin B1
  IC50: < 200 nM
[1]
  IC50: < 200 nM
CDK4/Cyclin D1 [3]
  IC50: < 200 nM
CDK6/Cyclin D3
  IC50: < 200 nM
MCF-7 cells
  IC50: 500 to 2000 nM
OVCAR-3 cells
  IC50: 500 to 2000 nM

## CS(=O)(=O)N1CCC(Nc2ncc3cc(C(F)(F)F)cc(N4CC5(CNCC5(F)F)C4)c3n2)CC1 [Example 116, 8-(8,8-difluoro-2,6-diazaspiro[3.4]octan-2-yl)-N-(1-(methylsulfonyl)piperidin-4-yl)-6-(trifluoromethyl)quinazolin-2-amine]
CDK1/Cyclin B1
  IC50: 500 to 2000 nM
[1]
  IC50: < 200 nM
CDK4/Cyclin D1 [3]
  IC50: < 200 nM
CDK6/Cyclin D3
  IC50: < 200 nM
MCF-7 cells
  IC50: 500 to 2000 nM
OVCAR-3 cells
  IC50: > 2000 nM

## CS(=O)(=O)N1CCC(Nc2ncc3cccc(C4CC(O)(C(F)F)C4)c3n2)CC1 (stereo not shown) [Example 120, 1-(difluoromethyl)-3-(2-((1-(methylsulfonyl)piperidin-4-yl)amino)quinazolin-8-yl)cyclobutan-1-ol]
CDK1/Cyclin B1
  IC50: < 200 nM
[1]
  IC50: < 200 nM
CDK4/Cyclin D1 [3]
  IC50: < 200 nM
CDK6/Cyclin D3
  IC50: < 200 nM
MCF-7 cells
  IC50: 500 to 2000 nM
OVCAR-3 cells
  IC50: 200 to 500 nM

## CS(=O)(=O)N1CCC(Nc2ncc3cccc(C4CC(CO)(C(F)F)C4)c3n2)CC1 (stereo not shown) [Example 121, (1-(difluoromethyl)-3-(2-((1-methanesulfonylpiperidin-4-yl)amino)quinazolin-8-yl)cyclobutyl]methanol]
CDK1/Cyclin B1
  IC50: 200 to 500 nM
[1]
  IC50: < 200 nM
CDK4/Cyclin D1 [3]
  IC50: < 200 nM
CDK6/Cyclin D3
  IC50: < 200 nM
MCF-7 cells
  IC50: > 2000 nM
OVCAR-3 cells
  IC50: 500 to 2000 nM
